# Laboratory results as given in patent US7648973B2, “2-methylene-1α,25-dihydroxy-19,21-dinorvitamin D3 analogs and uses thereof” (Wisconsin Alumni Research Foundation, priority 2006, dated 2010).
# Entries after “also recorded” stand apart in the source; their conditions may differ.
# Columns and labels:
# [1] = Intestinal calcium transport (everted gut sac); type: in vivo, rat; settings: compared with 1α,25-dihydroxyvitamin D3; ip, 4 consecutive days; FIG. 3
# Description: (§1) Male, weanling Sprague-Dawley rats were placed on Diet 11 (0.47% Ca) diet+AEK for one week followed by Diet 11 (0.02% Ca)+AEK for 3 weeks. The rats were then switched to a diet containing 0.47% Ca for one week followed by two weeks on a diet containing 0.02% Ca. Dose administration began during the last week on 0.02% calcium diet. Four consecutive ip doses were given approximately 24 hours apart. Twenty-four hours after the last dose, blood was collected from the severed neck and the concentration of serum calcium determined as a measure of bone calcium mobilization. The first 10 cm of the intestine was also collected for intestinal calcium transport analysis using the everted gut sac method. The everted gut sac assay was carried out as previously described by Martin and Deluca, Am. J. Physiol. 216, 1351 (1969); (DeLuca et al., U.S. Pat. No. 4,188,345), which are incorporated by reference as if fully set forth herein. Serum calcium was determined by atomic absorption spectrophotometry using a Perkin Elmer Model 3110 and by diluting the serum in 0.1% lanthanum chloride.
# (§2) The negative control material is prepared by volumetrically measuring ethanol (<5%) and propylene glycol, mixing, and then placing in storage at 2 to 8° C.
# (§3) The solution is mixed and then stored at 2 to 8° C. […]
# [2] = target: T1, full-length recombinant rat vitamin D receptor (Rattus norvegicus, UniProt P13053); assay: Vitamin D receptor binding, competition with [3H]-1,25-(OH)2-D3; settings: compared with 1α,25-dihydroxyvitamin D3; FIG. 1
# T1 construct: Full-length recombinant rat receptor was expressed in E. coli BL21(DE3) Codon Plus RIL cells; histidine tag (C); made in house; host or cells: E. coli BL21(DE3) Codon Plus RIL
# T1 sequence (P13053 1-423): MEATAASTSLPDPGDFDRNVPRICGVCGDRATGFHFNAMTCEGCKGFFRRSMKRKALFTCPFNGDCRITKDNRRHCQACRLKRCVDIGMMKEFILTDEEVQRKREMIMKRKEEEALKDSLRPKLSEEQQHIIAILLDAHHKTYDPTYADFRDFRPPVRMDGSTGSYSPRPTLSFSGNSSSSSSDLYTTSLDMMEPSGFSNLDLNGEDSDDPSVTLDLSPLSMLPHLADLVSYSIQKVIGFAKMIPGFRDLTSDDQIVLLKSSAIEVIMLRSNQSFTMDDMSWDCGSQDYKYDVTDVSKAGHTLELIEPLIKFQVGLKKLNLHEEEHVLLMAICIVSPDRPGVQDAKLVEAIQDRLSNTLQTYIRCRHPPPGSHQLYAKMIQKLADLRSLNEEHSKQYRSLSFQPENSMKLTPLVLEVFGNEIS
# Description: The first system was a nickel affinity resin that utilizes the C-terminal histidine tag on this protein. The protein that was eluted from this resin was further purified using ion exchange chromatography (S-Sepharose Fast Flow). Aliquots of the purified protein were quick frozen in liquid nitrogen and stored at −80° C. until use. For use in binding assays, the protein was diluted in TEDK50 (50 mM Tris, 1.5 mM EDTA, pH 7.4, 5 mM DTT, 150 mM KCl) with 0.1% Chaps detergent. The receptor protein and ligand concentration was optimized such that no more than 20% of the added radiolabeled ligand was bound to the receptor.
# The following day, 100 mcl of hydroxylapatite slurry (50%) was added to each tube and mixed at 10-minute intervals for 30 minutes. The hydroxylapaptite was collected by centrifugation and then washed three times with Tris-EDTA buffer (50 mM Tris, 1.5 mM EDTA, pH 7.4) containing 0.5% Titron X-100. After the final wash, the pellets were transferred to scintillation vials containing 4 ml of Biosafe II scintillation cocktail, mixed and placed in a scintillation counter. Total binding was determined from the tubes containing only radiolabeled ligand.
# HL-60 cells = assay: HL-60 differentiation (nitro blue tetrazolium reduction); type: cell-based, human; settings: compared with 1α,25-dihydroxyvitamin D3; FIG. 4
# Description: The study drugs were dissolved in ethanol and the concentrations determined using UV spectrophotometry. Serial dilutions were prepared so that a range of drug concentrations could be tested without changing the final concentration of ethanol (<0.2%) present in the cell cultures.
# Human promyelocytic leukemia (HL60) cells were grown in RPMI-1640 medium containing 10% fetal bovine serum. The cells were incubated at 37° C. in the presence of 5% CO2.
# HL60 cells were plated at 1.2×10^5 cells/ml. Eighteen hours after plating, cells in duplicate were treated with drug. Four days later, the cells were harvested and a nitro blue tetrazolium reduction assay was performed (Collins et al., 1979; J. Exp. Med. 149:969-974). The percentage of differentiated cells was determined by counting a total of 200 cells and recording the number that contained intracellular black-blue formazan deposits. Verification of differentiation to monocytic cells was determined by measuring phagocytic activity (data not shown).
# [3] = system: 24-hydyroxylase (24Ohase) gene promoter in ROS 17/2.8 (bone) cells; assay: In vitro transcription assay (luciferase reporter); type: cell-based; settings: compared with 1α,25-dihydroxyvitamin D3; FIG. 5
# Description: Transcription activity was measured in ROS 17/2.8 (bone) cells that were stably transfected with a 24-hydyroxylase (24Ohase) gene promoter upstream of a luciferase reporter gene (Arbour et al., 1998). Cells were given a range of doses. Sixteen hours after dosing the cells were harvested and luciferase activities were measured using a luminometer. (RLU=relative luciferase units)
# [4] = Bone calcium mobilization (serum calcium); type: in vivo, rat; settings: at equimolar quantities or even at 27 times the dose of 1α,25-dihydroxyvitamin D3; ip, 4 consecutive days; FIG. 2
# Description: as §1, §2, §3
smiles,measurement,setting,value
"C=C1[C@H](O)CC(=C/C=C2\CCC[C@]3(C)[C@@H](CCCCC(C)(C)O)CC[C@@H]23)C[C@H]1O [TP-62, 2-methylene-1α,25-dihydroxy-19,21-dinorvitamin D3]",intestinal calcium transport activity,[1],"greater or at least equal to 1α,25-dihydroxyvitamin D3"
same,binding to the recombinant vitamin D receptor,[2],"comparably active when compared to 1α,25-dihydroxyvitamin D3; also recorded: relatively high binding"
same,differentiation of HL-60 cells,HL-60 cells,"more active than 1α,25-dihydroxyvitamin D3"
same,stimulating transcription of a reporter gene stably transfected in Ros17/2.8 (bone) cells,[3],"equally active as 1α,25-dihydroxyvitamin D3"
same,bone calcium mobilization,[4],"lesser activity than 1α,25-dihydroxyvitamin D3; also recorded: lesser ability to mobilize calcium from bone"
